Measured values from patent publication US10154957B2, “Microneedle device having a peptide therapeutic agent and an amino acid and methods of making and using the same” (3M INNOVATIVE PROPERTIES COMPANY, priority 2011, dated 2018).
Marks after values point to notes of the source that are not given here.

Assay: Percent purity of PTHrP analogue in coating with varying His-HCl concentration, three storage conditions (HPLC)
Assay type: physicochemical
Details: peptide 10 mg/mL in PBS
Protocol: The protein or polypeptide content in the formulation coated on the microneedle arrays was determined using an Agilent 1100 HPLC system (Agilent Technologies, Wilmington, Del.) equipped with a binary pump, well-plated thermostated autosampler, thermostated column compartment, and a diode array UV detector. A Zorbax 300SB-C8 column (Agilent Technologies, Wilmington, Del.) having a 5 μm particle size and 2.1×150 mm inner diameter was used for the separations. The column was maintained at 50° C. The mobile phase consisted of two eluents. Eluent A was 0.1% TFA (trifluoroacetic acid) in water and eluent B was 0.1% TFA in acetonitrile (Spectrum Chemical, New Brunswick, N.J.). A linear gradient from 80/20 to 50/50 (A/B) was applied over 30 minutes. The flow rate was 0.4 mL/minute and the UV detection wavelength was set at 214 nm. The total run time was 34 minutes and the sample injection volume was 15 μL.
Five sample formulations were prepared containing 10 mg/mL of [Glu^22,25,Leu^23,28,31,Aib^29,Lys^26,30]hPTHrP(1-34)NH2 and varying concentrations of L-histidine monohydrochloride (His-HCl) in PBS. The concentrations of His-HCl in the sample formulations range from 1 mg/mL to 10 mg/mL. A control formulation was also prepared containing 10 mg/mL of [Glu^22,25,Leu^23,28,31,Aib^29,Lys^26,30]hPTHrP(1-34)NH2 in PBS. […] Microneedle arrays were coated with either the sample or the control formulations. The coating was applied by dropwise addition of 40 μL of the formulation to the portion of the array defined by the octagon shaped pattern of microneedles. The flood coated arrays (both sample and control formulation coated) were dried in an oven at 35° C. for 1.5 hours followed by 30° C. for 15 hours.
After drying, the coated arrays were placed in a storage chamber that was maintained at one of three storage conditions: 40° C./96% RH (storage condition A); 25° C./60% RH (storage condition B); or 5° C./ambient RH. The [Glu^22,25,Leu^23,28,31,Aib^29,Lys^26,30]hPTHrP(1-34)NH2 content of the coated arrays was determined following storage in a chamber for 1 day, 3 days, 7 days, 14 days, 21 days, 28 days, and 2 months. The initial [Glu^22,25,Leu^23,28,31,Aib^29,Lys^26,30]hPTHrP(1-34)NH2 content was also determined using freshly coated arrays (both sample and control formulation coated). The arrays used to determine initial content were stored in a refrigerator at about 4° C. and analyzed within one day of being prepared. At the designated time point, an array was taken from the chamber and washed with PBS (3.5 mL) to remove the coating from the array. An aliquot of the resulting wash solution was analyzed for [Glu^22,25,Leu^23,28,31,Aib^29,Lys^26,30]hPTHrP(1-34)NH2 content using the HPLC method described above. The results were quantified against an external standard of [Glu^22,25,Leu^23,28,31,Aib^29,Lys^26,30]hPTHrP(1-34)NH2. At each time point, the percent purity of [Glu^22,25,Leu^23,28,31,Aib^29,Lys^26,30]hPTHrP(1-34)NH2 in the coating was determined by measuring the peak area for [Glu^22,25,Leu^23,28,31,Aib^29,Lys^26,30]hPTHrP(1-34)NH2 in the selected coating and dividing it by the total peak area measured for all [Glu^22,25,Leu^23,28,31,Aib^29,Lys^26,30]hPTHrP(1-34)NH2 related peaks.

Percent Purity of [Glu^22,25, Leu^23,28,31, Aib^29, Lys^26,30]hPTHrP(1-34)NH2 (Histidine-HCl 3.3 mg/mL, Storage Condition B (25° C./60% RH), Initial): 99.3%
Percent Purity of [Glu^22,25, Leu^23,28,31, Aib^29, Lys^26,30]hPTHrP(1-34)NH2 (Histidine-HCl 5 mg/mL, Storage Condition A (40° C./96% RH), Day 1): 98.7%
Percent Purity of [Glu^22,25, Leu^23,28,31, Aib^29, Lys^26,30]hPTHrP(1-34)NH2 (Histidine-HCl 5 mg/mL, Storage Condition A (40° C./96% RH), Day 3): 97.5%
Percent Purity of [Glu^22,25, Leu^23,28,31, Aib^29, Lys^26,30]hPTHrP(1-34)NH2 (Histidine-HCl 5 mg/mL, Storage Condition A (40° C./96% RH), Day 7): 92.0%
Percent Purity of [Glu^22,25, Leu^23,28,31, Aib^29, Lys^26,30]hPTHrP(1-34)NH2 (Histidine-HCl 5 mg/mL, Storage Condition A (40° C./96% RH), Day 14): 65.1%
Percent Purity of [Glu^22,25, Leu^23,28,31, Aib^29, Lys^26,30]hPTHrP(1-34)NH2 (Histidine-HCl 5 mg/mL, Storage Condition A (40° C./96% RH), Day 21, the sample for analysis contained insoluble impurities): 33.8^(a) percent
Percent Purity of [Glu^22,25, Leu^23,28,31, Aib^29, Lys^26,30]hPTHrP(1-34)NH2 (Histidine-HCl 5 mg/mL, Storage Condition A (40° C./96% RH), Initial): 99.0%
Percent Purity of [Glu^22,25, Leu^23,28,31, Aib^29, Lys^26,30]hPTHrP(1-34)NH2 (Histidine-HCl 5 mg/mL, Storage Condition B (25° C./60% RH), 2 months): 98.4%
Percent Purity of [Glu^22,25, Leu^23,28,31, Aib^29, Lys^26,30]hPTHrP(1-34)NH2 (Histidine-HCl 5 mg/mL, Storage Condition B (25° C./60% RH), Day 3): 98.9%
Percent Purity of [Glu^22,25, Leu^23,28,31, Aib^29, Lys^26,30]hPTHrP(1-34)NH2 (Histidine-HCl 5 mg/mL, Storage Condition B (25° C./60% RH), Day 7): 98.9%
Percent Purity of [Glu^22,25, Leu^23,28,31, Aib^29, Lys^26,30]hPTHrP(1-34)NH2 (Histidine-HCl 5 mg/mL, Storage Condition B (25° C./60% RH), Day 14): 98.9%
Percent Purity of [Glu^22,25, Leu^23,28,31, Aib^29, Lys^26,30]hPTHrP(1-34)NH2 (Histidine-HCl 5 mg/mL, Storage Condition B (25° C./60% RH), Day 28): 98.8%
Percent Purity of [Glu^22,25, Leu^23,28,31, Aib^29, Lys^26,30]hPTHrP(1-34)NH2 (Histidine-HCl 5 mg/mL, Storage Condition B (25° C./60% RH), Initial): 99.0%
Percent Purity of [Glu^22,25, Leu^23,28,31, Aib^29, Lys^26,30]hPTHrP(1-34)NH2 (Histidine-HCl 10 mg/mL, Storage Condition A (40° C./96% RH), Day 1): 98.7%
Percent Purity of [Glu^22,25, Leu^23,28,31, Aib^29, Lys^26,30]hPTHrP(1-34)NH2 (Histidine-HCl 10 mg/mL, Storage Condition A (40° C./96% RH), Day 3): 98.5%
Percent Purity of [Glu^22,25, Leu^23,28,31, Aib^29, Lys^26,30]hPTHrP(1-34)NH2 (Histidine-HCl 10 mg/mL, Storage Condition A (40° C./96% RH), Day 7): 97.7%
Percent Purity of [Glu^22,25, Leu^23,28,31, Aib^29, Lys^26,30]hPTHrP(1-34)NH2 (Histidine-HCl 10 mg/mL, Storage Condition A (40° C./96% RH), Day 14): 94.9%
Percent Purity of [Glu^22,25, Leu^23,28,31, Aib^29, Lys^26,30]hPTHrP(1-34)NH2 (Histidine-HCl 10 mg/mL, Storage Condition A (40° C./96% RH), Day 21): 80.8%
Percent Purity of [Glu^22,25, Leu^23,28,31, Aib^29, Lys^26,30]hPTHrP(1-34)NH2 (Histidine-HCl 10 mg/mL, Storage Condition A (40° C./96% RH), Initial): 99.0%
Percent Purity of [Glu^22,25, Leu^23,28,31, Aib^29, Lys^26,30]hPTHrP(1-34)NH2 (Histidine-HCl 10 mg/mL, Storage Condition B (25° C./60% RH), Day 3): 98.9%
Percent Purity of [Glu^22,25, Leu^23,28,31, Aib^29, Lys^26,30]hPTHrP(1-34)NH2 (Histidine-HCl 10 mg/mL, Storage Condition B (25° C./60% RH), Day 7): 98.9%
Percent Purity of [Glu^22,25, Leu^23,28,31, Aib^29, Lys^26,30]hPTHrP(1-34)NH2 (Histidine-HCl 10 mg/mL, Storage Condition B (25° C./60% RH), Day 14): 98.8%
Percent Purity of [Glu^22,25, Leu^23,28,31, Aib^29, Lys^26,30]hPTHrP(1-34)NH2 (Histidine-HCl 10 mg/mL, Storage Condition B (25° C./60% RH), Initial): 99.0%
Percent Purity of [Glu^22,25, Leu^23,28,31, Aib^29, Lys^26,30]hPTHrP(1-34)NH2 (Histidine-HCl none, Storage Condition B (25° C./60% RH), 2 months): 96.3%
Percent Purity of [Glu^22,25, Leu^23,28,31, Aib^29, Lys^26,30]hPTHrP(1-34)NH2 (Histidine-HCl none, Storage Condition B (25° C./60% RH), Day 3): 97.9%
Percent Purity of [Glu^22,25, Leu^23,28,31, Aib^29, Lys^26,30]hPTHrP(1-34)NH2 (Histidine-HCl none, Storage Condition B (25° C./60% RH), Day 7): 98.0%
Percent Purity of [Glu^22,25, Leu^23,28,31, Aib^29, Lys^26,30]hPTHrP(1-34)NH2 (Histidine-HCl none, Storage Condition B (25° C./60% RH), Day 14): 97.7%
Percent Purity of [Glu^22,25, Leu^23,28,31, Aib^29, Lys^26,30]hPTHrP(1-34)NH2 (Histidine-HCl none, Storage Condition B (25° C./60% RH), Day 28): 97.5%
Percent Purity of [Glu^22,25, Leu^23,28,31, Aib^29, Lys^26,30]hPTHrP(1-34)NH2 (Histidine-HCl none, Storage Condition B (25° C./60% RH), Initial): 98.7%
Substance: [Glu^22,25,Leu^23,28,31,Aib^29,Lys^26,30]hPTHrP(1-34)NH2
